From US20250084092A1, “ANNULATED PYRIDAZINE COMPOUND” (Nico Therapeutics, Inc., priority 2021, published 2025)

Experiments:
[1] = biological target: T1, NLRP3 inflammasome (Homo sapiens, UniProt Q96P20); test: THP-1 IL-1β production inhibition test; assay type: cell-based; conditions: PMA-treated THP-1 cells, LPS 50 ng/mL + ATP 5 mM, 2 hours, IL-1β in supernatant by ELISA
T1 construct: endogenous in cells; host or cells: THP-1 cells (PMA-differentiated, stimulated with LPS and ATP)
In short: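 THP-1 cells differentiated with PMA 50 ng/mL for 2 days, then stimulated with LPS 50 ng/mL and ATP 5 mM (final) for 2 h at 37 °C. Supernatant IL-1β measured by ELISA; IC50 from sigmoid Emax nonlinear regression against log compound concentration.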

[2] = system: TNF-α production in THP-1 cells; test: TNF-α production inhibition test; assay type: cell-based; conditions: Homo sapiens; PMA-treated THP-1 cells, LPS 50 ng/mL, 2 hours, TNF-α in supernatant by ELISA
Protocol: PMA (phorbol myristate acetate, SIGMA, P1585) was added to THP-1 cells in an amount of 50 ng/mL to culture the cells for 2 days at 37° C. The culture medium was replaced with a serum-free RPMI-1640 medium, and a compound with a known concentration was added thereto to culture the cells at 37° C. for 15 minutes. LPS (Lipopolysaccharide SIMGA, L2880) was added so that each final concentration becomes 50 ng/mL, followed by culturing at 37° C. for 2 hours. The supernatants were collected to measure the concentration of TNF-α by ELISA (DuoSet ELISA human TNF-α, R&D Systems, DY210). The TNF-α concentrations were plotted against log concentrations of test compounds, and an IC50 value was calculated by sigmoid Emax model nonlinear regression analysis.

[3] = system: IL-1β p17; test: Rat central nervous system IL-1β production test; assay type: in vivo; conditions: Wistar rat, oral, cerebrospinal fluid, LPS + BzATP in cisterna magna, read-out: percent inhibition of IL-1β p17 relative to the solvent-treated group
Protocol: Under isoflurane anesthesia, 10 to 14 weeks-old male Wistar rats were administered with 12.5 μg/5 μL of LPS (SIGMA, L2880) in the cisterna magna, followed by an oral administration of the test compound 2 hours later. After an additional hour, 50 μg/5 μL of BzATP(2′(3′)-O-(4-benzoylbenzoyl)adenosine 5′-triphosphate triethylammonium salt, SIGMA, B6396) was administered into the cisterna magna, and cerebrospinal fluid was collected after 30 minutes. The cerebrospinal fluid was subjected to Western blotting using an anti-IL-1β antibody (Millipore, AB1832P) to quantify IL-1β p17, and the percent inhibition relative to the solvent-treated group was calculated.
The percent inhibition of IL-1β p17 for Examples 1, 2(1), 3(1) and 124, which are compounds of formula (I), relative to the solvent-treated group is shown in the following table. In the table, Dose refers to the dosage of test compounds; Ex1, Ex2(1), Ex3(1), and Ex124 refer to Example 1, Example 2(1), Example 3(1); and Example 124; and “NT” denotes the unmeasured case.

[4] = system: 3T3; test: In vitro phototoxicity test (3T3 NRU); assay type: cell-based; conditions: In vitro 3T3 NRU Phototoxicity Test, OECD 432, ICH S10
Source text: The evaluation of in vitro phototoxicity tests was based on ICH S10: Guidelines for Evaluation of Photosafety of Drugs (Notification No. 0521-1) using a method described in OECD Guidelines for the Testing of Chemicals 432: In vitro 3T3 NRU Phototoxicity Test, 2019).

[5] = biological target: hERG channel (Homo sapiens, UniProt Q12809); test: Safety pharmacology test: hERG channel inhibitory effect; assay type: biochemical; conditions: human Ether-a-go-go Related Gene channel
Protocol: For the safety pharmacology test, evaluation of a human Ether-a-go-go Related Gene (hereinafter referred to as hERG) channel inhibitory effect was carried out. The hERG channel inhibitory effect was evaluated using a modified method described in Combinatorial Chemistry & High Throughput Screening, 12, 1, 78-95 (2009).

T1 sequence (Q96P20 whole entry): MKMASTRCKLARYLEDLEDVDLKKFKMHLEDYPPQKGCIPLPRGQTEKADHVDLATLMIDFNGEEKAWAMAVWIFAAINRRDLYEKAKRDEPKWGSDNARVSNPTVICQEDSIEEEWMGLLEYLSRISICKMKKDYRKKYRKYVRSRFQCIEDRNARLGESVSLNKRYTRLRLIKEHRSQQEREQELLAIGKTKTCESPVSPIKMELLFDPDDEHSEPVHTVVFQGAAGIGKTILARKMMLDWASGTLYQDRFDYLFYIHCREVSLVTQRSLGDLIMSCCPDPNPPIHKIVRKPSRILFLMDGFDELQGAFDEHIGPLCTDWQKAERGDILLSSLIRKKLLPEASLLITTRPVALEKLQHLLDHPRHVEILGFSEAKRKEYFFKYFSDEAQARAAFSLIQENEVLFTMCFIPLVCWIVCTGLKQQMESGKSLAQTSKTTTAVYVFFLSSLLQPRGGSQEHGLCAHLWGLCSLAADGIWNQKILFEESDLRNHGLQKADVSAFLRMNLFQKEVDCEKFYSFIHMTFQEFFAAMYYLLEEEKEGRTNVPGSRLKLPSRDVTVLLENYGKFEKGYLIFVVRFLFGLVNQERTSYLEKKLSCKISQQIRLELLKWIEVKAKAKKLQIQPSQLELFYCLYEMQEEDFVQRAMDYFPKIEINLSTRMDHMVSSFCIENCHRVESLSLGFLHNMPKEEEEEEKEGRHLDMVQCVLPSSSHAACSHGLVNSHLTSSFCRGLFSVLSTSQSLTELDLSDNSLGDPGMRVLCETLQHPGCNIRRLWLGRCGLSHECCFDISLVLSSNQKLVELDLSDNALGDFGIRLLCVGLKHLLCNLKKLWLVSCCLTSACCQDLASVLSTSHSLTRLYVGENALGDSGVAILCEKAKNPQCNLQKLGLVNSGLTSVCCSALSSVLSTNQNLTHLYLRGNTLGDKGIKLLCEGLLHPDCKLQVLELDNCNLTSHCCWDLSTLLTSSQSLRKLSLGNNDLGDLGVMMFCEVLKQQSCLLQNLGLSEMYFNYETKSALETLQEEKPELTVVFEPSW
Chain of hERG channel (Q12809 whole entry): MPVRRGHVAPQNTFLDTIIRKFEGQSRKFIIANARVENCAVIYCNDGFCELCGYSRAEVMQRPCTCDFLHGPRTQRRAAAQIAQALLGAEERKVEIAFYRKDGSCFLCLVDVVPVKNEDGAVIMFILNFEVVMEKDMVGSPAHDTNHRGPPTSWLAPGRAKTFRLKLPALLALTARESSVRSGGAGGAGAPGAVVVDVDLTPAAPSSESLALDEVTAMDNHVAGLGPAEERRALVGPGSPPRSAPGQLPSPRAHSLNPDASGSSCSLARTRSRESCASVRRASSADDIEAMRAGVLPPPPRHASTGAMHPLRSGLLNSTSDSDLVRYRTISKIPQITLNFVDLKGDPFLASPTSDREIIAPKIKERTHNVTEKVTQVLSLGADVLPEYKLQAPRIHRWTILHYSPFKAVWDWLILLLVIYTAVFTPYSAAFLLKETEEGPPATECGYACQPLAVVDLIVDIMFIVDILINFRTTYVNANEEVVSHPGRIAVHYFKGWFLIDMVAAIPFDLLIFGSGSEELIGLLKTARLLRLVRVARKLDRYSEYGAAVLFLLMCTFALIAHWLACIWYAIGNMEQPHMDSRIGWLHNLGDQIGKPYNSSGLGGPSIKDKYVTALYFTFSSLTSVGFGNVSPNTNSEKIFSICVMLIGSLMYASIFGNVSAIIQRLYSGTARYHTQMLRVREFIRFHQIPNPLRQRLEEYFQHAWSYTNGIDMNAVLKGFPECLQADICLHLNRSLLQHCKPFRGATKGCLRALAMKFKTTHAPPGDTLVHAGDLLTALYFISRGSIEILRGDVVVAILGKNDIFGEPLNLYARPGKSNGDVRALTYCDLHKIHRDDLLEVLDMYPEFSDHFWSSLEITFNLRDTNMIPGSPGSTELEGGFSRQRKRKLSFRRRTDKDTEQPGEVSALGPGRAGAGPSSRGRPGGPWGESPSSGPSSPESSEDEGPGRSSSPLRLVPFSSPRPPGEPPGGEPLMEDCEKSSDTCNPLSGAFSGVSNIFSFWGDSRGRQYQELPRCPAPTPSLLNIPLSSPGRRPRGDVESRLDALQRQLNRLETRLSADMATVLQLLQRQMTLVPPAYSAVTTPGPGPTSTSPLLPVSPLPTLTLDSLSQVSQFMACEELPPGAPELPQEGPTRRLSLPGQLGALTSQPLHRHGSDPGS

IC50 [1] [nM] | IC50 [2] [nM] | SMILES | inhibition at 0.3 mg/kg [3] [%] | inhibition at 1 mg/kg [3] [%] | inhibition at 3 mg/kg [3] [%] | phototoxic effect [4] | IC50 [5] [nM] | inhibition at 0.1 mg/kg ([3]; Dose 0.1 mg/kg) [%]
3.4 | ≥ 10000 | Oc1cc(C(F)(F)F)ccc1-c1nnc(N[C@@H]2CCCC[C@H]2O)c2c1CCOC2 [Example 2(1), 2-(4-{[(1R,2R)-2-hydroxycyclohexyl]amino}-7,8-dihydro-5H-pyrano[3,4-d]pyridazin-1-yl)-5-(trifluoromethyl)phenol] | 81 | 75 | 88 | no phototoxic effect | ≥ 10000 | –
7.6 | ≥ 10000 | CN1CCc2c(-c3ccc(C(F)(F)F)cc3O)nnc(N[C@@H]3CCCC[C@H]3O)c2C1 [Example 73, 2-(4-{[(1R,2R)-2-hydroxycyclohexyl]amino}-6-methyl-5,6,7,8-tetrahydropyrido[3,4-d]pyridazin-1-yl)-5-(trifluoromethyl)phenol] | – | – | – | – | – | –
2.2 | ≥ 10000 | Oc1cc(OC(F)(F)F)ccc1-c1nnc(N[C@@H]2CCCC[C@H]2O)c2c1CCOC2 [Example 3(1), 2-(4-{[(1R,2R)-2-hydroxycyclohexyl]amino}-7,8-dihydro-5H-pyrano[3,4-d]pyridazin-1-yl)-5-(trifluoromethoxy)phenol] | 75 | 82 | 72 | no phototoxic effect | ≥ 10000 | –
2.1 | ≥ 10000 | Oc1cc(Cl)ccc1-c1nnc(N[C@@H]2CCCC[C@H]2O)c2c1CCOC2 [Example 70, 5-chloro-2-(4-{[(1R,2R)-2-hydroxycyclohexyl]amino}-7,8-dihydro-5H-pyrano[3,4-d]pyridazin-1-yl)phenol] | – | – | – | – | – | –
4.7 | ≥ 10000 | Oc1cc(C(F)(F)F)ccc1-c1nnc(N[C@@H]2CCCC[C@H]2O)c2c1CCOCC2 [Example 5, 2-(4-{[(1R,2R)-2-hydroxycyclohexyl]amino}-5,6,8,9-tetrahydrooxepino[4,5-d]pyridazin-1-yl)-5-(trifluoromethyl)phenol] | – | – | – | – | – | –
10 | ≥ 10000 | Oc1cc(C(F)(F)F)ccc1-c1nnc(N[C@@H]2CCCC[C@H]2O)c2c1CCCC2 [Example 1, 2-(4-{[(1R,2R)-2-hydroxycyclohexyl]amino}-5,6,7,8-tetrahydrophthalazin-1-yl)-5-(trifluoromethyl)phenol] | -12 | 74 | 84 | no phototoxic effect | ≥ 10000 | –
58 | – | Oc1cc(C(F)(F)F)ccc1-c1nnc(NCC2(O)CCC2)c2ccccc12 [Example 12] | – | – | – | – | – | –

The remaining lines, values behind:

SMILES | IC50 [1] [nM] | IC50 [2] [nM] | inhibition at 0.3 mg/kg [3] [%] | inhibition at 1 mg/kg [3] [%] | inhibition at 3 mg/kg [3] [%] | phototoxic effect [4] | IC50 [5] [nM] | inhibition at 0.1 mg/kg ([3]; Dose 0.1 mg/kg) [%]
CN1Cc2c(N[C@@H]3CCCC[C@H]3O)nnc(-c3ccc(C(F)(F)F)cc3O)c2C1 [Example 99, 2-(4-{[(1R,2R)-2-hydroxycyclohexyl]amino}-6-methyl-6,7-dihydro-5H-pyrrolo[3,4-d]pyridazin-1-yl)-5-(trifluoromethyl)phenol] | 16 | ≥ 10000 | – | – | – | – | – | –
Oc1cc(C(F)(F)F)ccc1-c1nnc(N[C@@H]2CCCC[C@H]2O)c2c1CSC2 [Example 111, 2-(4-{[(1R,2R)-2-hydroxycyclohexyl]amino}-5,7-dihydrothieno[3,4-d]pyridazin-1-yl)-5-(trifluoromethyl)phenol] | 2.9 | ≥ 10000 | – | – | – | – | – | –
CN1CCC[C@@H](Nc2nnc(-c3ccc(OC(F)F)cc3O)c3c2COCC3)C1 [Example 124, 5-(difluoromethoxy)-2-(4-{[(3R)-1-methylpiperidin-3-yl]amino}-7,8-dihydro-5H-pyrano[3,4-d]pyridazin-1-yl)phenol] | 0.62 | ≥ 10000 | 49 | 96 | – | no phototoxic effect | ≥ 10000 | 55
Oc1cc(C(F)(F)F)ccc1-c1nnc(N[C@@H]2CCCC[C@@H]2O)c2c1CCOC2 [4(1), 2-(4-{[(1R,2S)-2-hydroxycyclohexyl]amino}-7,8-dihydro-5H-pyrano[3,4-d]pyridazin-1-yl)-5-(trifluoromethyl)phenol] | 2.5 | ≥ 10000 | – | – | – | – | – | –
Oc1cc(OC(F)F)ccc1-c1nnc(N[C@@H]2CCCC[C@H]2O)c2c1CCOC2 [Example 88, 5-(difluoromethoxy)-2-(4-{[(1R,2R)-2-hydroxycyclohexyl]amino}-7,8-dihydro-5H-pyrano[3,4-d]pyridazin-1-yl)phenol] | 1.8 | ≥ 10000 | – | – | – | – | – | –
Oc1cc(OC(F)F)ccc1-c1nnc(N[C@@H]2CCCC[C@H]2O)c2c1CCCC2 [Example 83, 5-(difluoromethoxy)-2-(4-{[(1R,2R)-2-hydroxycyclohexyl]amino}-5,6,7,8-tetrahydrophthalazin-1-yl)phenol] | 4.8 | ≥ 10000 | – | – | – | – | – | –
CN1CCC[C@@H](Nc2nnc(-c3ccc(C(F)(F)F)cc3O)c3c2COCC3)C1 [Example 125] | 1.5 | ≥ 10000 | – | – | – | – | – | –
CN1CCC[C@@H](Nc2nnc(-c3ccc(OC(F)F)cc3O)c3c2CCOC3)C1 [Example 120] | 1 | – | – | – | – | – | – | –
